Reference: US11667602B2, “Compounds and their use” (AstraZeneca AB, priority 2020, dated 2023)

Molecular target: T1, human RXFP1 (Homo sapiens, UniProt Q9HBX9)
T1 sequence (Q9HBX9 1-757): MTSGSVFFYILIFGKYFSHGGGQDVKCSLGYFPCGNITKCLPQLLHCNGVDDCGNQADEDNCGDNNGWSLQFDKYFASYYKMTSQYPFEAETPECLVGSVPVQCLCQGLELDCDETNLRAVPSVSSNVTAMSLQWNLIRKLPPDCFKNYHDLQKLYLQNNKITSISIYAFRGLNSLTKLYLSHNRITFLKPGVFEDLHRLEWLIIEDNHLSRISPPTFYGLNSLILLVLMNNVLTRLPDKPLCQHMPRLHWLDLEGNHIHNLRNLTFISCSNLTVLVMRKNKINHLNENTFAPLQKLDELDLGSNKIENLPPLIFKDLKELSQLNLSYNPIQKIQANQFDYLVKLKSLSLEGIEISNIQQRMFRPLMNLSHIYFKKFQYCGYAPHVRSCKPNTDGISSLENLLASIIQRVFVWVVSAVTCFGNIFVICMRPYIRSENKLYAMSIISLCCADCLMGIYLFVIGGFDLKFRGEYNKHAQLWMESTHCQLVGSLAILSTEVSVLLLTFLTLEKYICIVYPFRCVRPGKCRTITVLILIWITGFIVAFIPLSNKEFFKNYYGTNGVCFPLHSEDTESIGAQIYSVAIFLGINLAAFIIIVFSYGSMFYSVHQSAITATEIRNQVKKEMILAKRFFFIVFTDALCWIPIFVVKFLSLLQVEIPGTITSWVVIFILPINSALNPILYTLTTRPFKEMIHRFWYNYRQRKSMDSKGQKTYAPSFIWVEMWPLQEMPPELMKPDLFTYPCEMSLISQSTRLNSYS
Experiment: RXFP1 Hu cAMP (Test A)
Format: cell-based
Set-up: expressed in transfected cells; host or cells: Jump-In T-REx CHO-K1 cells (ThermoFisher), induced with 10 ng/ml doxycycline for 24 h
Settings: RXFP1 Hu cAMP; for EC50: read-out: Test A EC50
In short: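 CHO-K1 (Jump-In T-REx), RXFP1 induced w/ 10 ng/ml doxycycline 24 h, cryopreserved. 0.5 mM IBMX final. cAMP by HTRF, 2 h RT, std curve.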

| Test A Sinf [%] | EC50 [nM] | Compound |
| --- | --- | --- |
| 117 | 37 | COc1cc(F)c(O[C@H]2CC[C@@H](C(N)=O)CC2)cc1C(=O)N[C@@H]1[C@@H]2CC[C@@H](C2)[C@@H]1C(=O)Nc1cccc(S(F)(F)(F)(F)F)c1 [Example 511, (1S,2S,3R,4R)-3-(5-(((1s,4S)-4-Carbamoylcyclohexyl)oxy)-4-fluoro-2-methoxybenzamido)-N-(3-(pentafluoro-A6-sulfaneyl)phenyl)bicyclo[2.2.1]heptane-2-carboxamide] |
| 100 | 480 | Cn1ncc2c(O[C@H]3CC[C@@](C)(C(=O)O)CC3)cc(C(=O)N[C@@H]3[C@H]4CC[C@H](C4)[C@@H]3C(=O)NCC3(C)CCC3)cc21 [Example 379] |
| 101 | – | COc1cc(F)c(O[C@H]2CC[C@](C)(C(=O)O)CC2)cc1C(=O)NC1[C@H]2CC[C@H](C2)[C@@H]1C(=O)Nc1cccc(S(=O)(=O)C(F)(F)F)c1 (some centres unmarked) [Example 445] |
| 170 | 130 | COc1cc(C#N)c(O[C@H]2CC[C@@](C)(C(=O)O)CC2)cc1C(=O)Nc1cc(Cl)ccc1C(=O)NC12CC(C1)C2 [Example 161] |
| 95 | 91 | COc1cc(F)c(O[C@H]2CC[C@@](C)(C(=O)O)CC2)cc1C(=O)N[C@H]1[C@@H](C(=O)NCC2(C)CCC2)[C@H]2C=C[C@@H]1CC2 (racemic) [Example 471, (1R,4s)-4-(2-Fluoro-4-methoxy-5-(((1RS,2SR,3RS,4SR)-3-(((1-methylcyclobutyl)methyl)carbamoyl)bicyclo[2.2.2]oct-5-en-2-yl)carbamoyl)phenoxy)-1-methylcyclohexane-1-carboxylic acid] |
| 93 | > 2300 | COc1cc(C#N)c(O[C@H]2CC[C@@](C)(C(=O)O)CC2)cc1C(=O)N[C@@H]1[C@H]2CC[C@H](C2)[C@@H]1C(=O)NCC1CCOCC1 [Example 137] |
| 108 | 1600 | COc1cc(F)c(OCc2cccc(C(=O)O)c2)cc1C(=O)N[C@H]1[C@@H](C(=O)Nc2cccc(S(=O)(=O)C(F)(F)F)c2)[C@@H]2C=C[C@H]1C2 (racemic) [Example 449] |
| – | > 40000 | COc1cc(F)c(-c2ccc(CCS(N)(=O)=O)cc2)cc1C(=O)N[C@H]1[C@H]2CC[C@H](C2)[C@H]1C(=O)Nc1cccc(S(=O)(=O)C(F)(F)F)c1 (single isomer, unassigned) [Example 327] |
| 81 | – | COc1cc(F)c(-c2ccc(C(=O)O)cc2)cc1C(=O)N[C@@H]1CCC[C@@H]1C(=O)Nc1cccc(S(=O)(=O)C(F)(F)F)c1 (racemic) [Example 299] |
| 107 | 240 | COc1cc(C#N)c(O[C@H]2CC[C@@](C)(C(=O)O)CC2)cc1C(=O)N[C@@H]1[C@H]2CC[C@H](C2)[C@@H]1C(=O)NCC(C)(C)OC [Example 129] |
| 44 | 2900 | COc1cc(F)c([C@H]2CC[C@H](C(=O)O)CC2)cc1C(=O)N[C@@H]1[C@H]2CC[C@H](C2)[C@@H]1C(=O)Nc1cccc(S(=O)(=O)C(F)(F)F)c1 [Example 269, (1R,4r)-4-(2-fluoro-4-methoxy-5-(((1S,2R,3S,4R)-3-((3-((trifluoromethyl)sulfonyl)phenyl)carbamoyl)bicyclo[2.2.1]heptan-2-yl)carbamoyl)phenyl)cyclohexane-1-carboxylic acid] |
| 75 | 300 | COc1cc(F)c(-c2ccc(C(=O)O)s2)cc1C(=O)N[C@H]1[C@@H](C(=O)Nc2cccc(S(=O)(=O)C(F)(F)F)c2)[C@@H]2C=C[C@H]1C2 (racemic) [Example 285] |
| 71 | 1300 | COc1cc(C#N)c(O[C@H]2CC[C@@](C)(C(=O)O)CC2)cc1C(=O)N[C@@H]1[C@H]2CC[C@H](C2)[C@@H]1C(=O)NCCCOC(C)C [Example 122] |
| – | > 40000 | COc1ccc(Oc2ccccc2C(=O)O)cc1C(=O)N[C@H]1[C@@H](C(=O)Nc2cccc(S(=O)(=O)C(F)(F)F)c2)[C@@H]2C=C[C@H]1C2 (racemic) [Example 429] |
| 98 | 47 | CCC(C)(C)NC(=O)[C@H]1[C@@H]2CC[C@@H](C2)[C@H]1NC(=O)c1cc(O[C@H]2CC[C@@](C)(C(=O)O)CC2)c(C#N)cc1OC [Example 126] |
| 77 | 2600 | COc1cc(F)c(OCc2ccccc2C(=O)O)cc1C(=O)N[C@H]1[C@@H](C(=O)Nc2cccc(S(=O)(=O)C(F)(F)F)c2)[C@@H]2C=C[C@H]1C2 (racemic) [Example 448, rac-2-((2-Fluoro-4-methoxy-5-(((1R,2R,3S,4S)-3-((3-((trifluoromethyl)sulfonyl)phenyl)carbamoyl)bicyclo[2.2.1]hept-5-en-2-yl)carbamoyl)phenoxy)methyl)benzoic acid] |
| 96 | – | COc1cc(F)c(O[C@H]2CC[C@@](C)(C(=O)O)CC2)cc1C(=O)N[C@@H]1CC[C@@H]1C(=O)NCC(C)(C)C (racemic) [Example 346] |
| 96 | 530 | COCC1(CNC(=O)[C@H]2[C@@H]3CC[C@@H](C3)[C@H]2NC(=O)c2cc(O[C@H]3CC[C@@](C)(C(=O)O)CC3)c(F)cc2OC)CCC1 [Example 594] |
| – | > 40000 | COc1cc(F)c(-c2cccc(C(=O)O)n2)cc1C(=O)N[C@H]1[C@@H](C(=O)Nc2cccc(S(=O)(=O)C(F)(F)F)c2)[C@@H]2C=C[C@H]1C2 (racemic) [Example 279] |
| 103 | 2.2 | COc1cc(F)c(O[C@H]2CC[C@@](CO)(C(=O)O)CC2)cc1C(=O)N[C@@H]1[C@@H]2CC[C@@H](C2)[C@@H]1C(=O)Nc1cccc(S(=O)(=O)C(F)(F)F)c1 (racemic) [Example 366] |
| 104 | 110 | COc1cc(F)c(OC2CCC(N)(C(=O)O)CC2)cc1C(=O)N[C@@H]1[C@H]2CC[C@H](C2)[C@@H]1C(=O)Nc1cccc(S(=O)(=O)C(F)(F)F)c1 (stereo partly drawn) [Example 458, 1-Amino-4-(2-fluoro-4-methoxy-5-(((1S,2R,3S,4R)-3-((3-((trifluoromethyl)sulfonyl)phenyl)carbamoyl)bicyclo[2.2.1]heptan-2-yl)carbamoyl)phenoxy)cyclohexane-1-carboxylic acid] |
| – | > 40000 | COc1cc(F)c(O[C@H]2C[C@@H]3[C@H](C2)[C@H]3C(=O)O)cc1C(=O)N[C@@H]1[C@H]2CC[C@H](C2)[C@@H]1C(=O)NCC1(C)CCC1 (racemic) [Example 426, (1RS,3SR,5SR,6RS)-3-(2-Fluoro-4-methoxy-5-(((1S,2R,3S,4R)-3-(((1-methylcyclobutyl)methyl)carbamoyl)bicyclo[2.2.1]heptan-2-yl)carbamoyl)phenoxy)bicyclo[3.1.0]hexane-6-carboxylic acid] |
| 106 | 0.7 | COc1cc(F)c(O[C@H]2CC[C@@](CO)(C(=O)O)CC2)cc1C(=O)NC1C2CCC(C2)C1C(=O)Nc1cccc(S(=O)(=O)C(F)(F)F)c1 (single isomer, unassigned) [Example 584, (1R,4s)-4-(2-Fluoro-4-methoxy-5-(((1S*,2S*,3R*,4R*)-3-((3-((trifluoromethyl)sulfonyl)phenyl)carbamoyl)bicyclo[2.2.1]heptan-2-yl)carbamoyl)phenoxy)-1-(hydroxymethyl)cyclohexane-1-carboxylic acid] |
| 119 | – | COc1cc(F)c(O[C@H]2CC[C@@](C)(C(=O)O)CC2)cc1C(=O)N[C@@H]1CCO[C@@H]1C(=O)Nc1cccc(S(=O)(=O)C(F)(F)F)c1 [Example 356] |
| 100 | 200 | COc1cc(F)c(O[C@H]2C[C@@H](CC(=O)O)C2)cc1C(=O)N[C@@H]1[C@@H]2CC[C@@H](C2)[C@@H]1C(=O)Nc1cccc(S(=O)(=O)C(F)(F)F)c1 [Example 475, 2-((1S,3s)-3-(2-Fluoro-4-methoxy-5-(((1R,2R,3S,4S)-3-((3-((trifluoromethyl)sulfonyl)phenyl)carbamoyl)bicyclo[2.2.1]heptan-2-yl)carbamoyl)phenoxy)cyclobutyl)acetic acid] |

| Compound | Test A Sinf [%] | EC50 [nM] |
| --- | --- | --- |
| (1R,4s)-4-(2-fluoro-4-methoxy-5-(((1S*,2S*,5S*)-2-methoxy-5-((3-((trifluoromethyl)sulfonyl)phenyl)carbamoyl)cyclopentyl)carbamoyl)phenoxy)-1-methylcyclohexane-1-carboxylic acid [Example 527] | 101 | – |
| (1R,4s)-4-(2-Fluoro-4-methoxy-5-(((1R*,2S*,3R*,4S*)-3-(((1-methylcyclobutyl)methyl)carbamoyl)bicyclo[2.2.2]oct-5-en-2-yl)carbamoyl)phenoxy)-1-methylcyclohexane-1-carboxylic acid [Example 545] | 91 | – |
